Patent US12655142B2 (Merck Patent GmbH, priority 2019, dated 2026)

Key:
c-Kit(V654A) = molecular target: T1, c-Kit(V654A) (Homo sapiens, UniProt P10721, V654A); assay: c-Kit(V654A) assay (33P-ATP filter binding kinase assay); assay type: biochemical; settings: recombinant human c-Kit aa 544-end V654A, ATP 200 μM
T1 construct: recombinant human c-Kit, amino acids 544-end containing the V654A mutation; GST (N)
Method: c-Kit(V654A) (N-terminal GST-tagged, recombinant human c-Kit, amino acids 544-end containing the V654A mutation) is incubated with 8 mM MOPS pH 7.0, 0.2 mM EDTA, 250 μM GGMEDIYEFMGGKKK, 10 mM MgAcetate and [gamma-33P-ATP] (specific activity approx. 500 cpm/pmol, concentration 200 μM). The reaction is initiated by the addition of the MgATP mix. After incubation for 40 minutes at room temperature, the reaction is stopped by the addition of 3% phosphoric acid solution. 10 μL of the reaction is then spotted onto a P30 filtermat and washed three times for 5 minutes in 75 mM phosphoric acid and once in methanol prior to drying and scintillation counting.

[1] = molecular target: T2, GIST430/654 cell line expressing mutated constitutively active cKIT receptor tyrosine kinase (Δ560-576 deletion and V654A point mutation) (Homo sapiens, UniProt P10721, DEL560-576/V654A); assay: Cellular cKIT autophosphorylation (phospho-Y307-cKIT, Luminex bead assay) in GIST430/654 cells; assay type: cell-based; settings: compounds 45 min, read-out: GIST 430/654 IC50
T2 construct: endogenous in cells; host or cells: GIST430/654 cells
Method: Assay Principle for Cellular Testing of cKIT Mutant Inhibitors
The GIST430 cell line expressing constitutive active cKIT receptor tyrosine kinase (Δ560-576 deletion) and the Imatinib resistant GIST430/654 cell line expressing mutated constitutively active cKIT receptor tyrosine kinase (Δ560-576 deletion and V654A point mutation) were employed for assessing cellular potency of compounds. Cellular activity of mutant cKIT was determined by the degree of cKIT autophosphorylation at tyrosine 307 using a Luminex-based bead assay. GIST430 cells were plated with 22,000 cells per well of a 96-well plate in 100 μl medium (85% IMDM/15% FCS) and GIST430/654 cells were plated with 25,000 cells per well of a 96-well plate in 100 μl medium (85% IMDM/15% FCS supplemented with 100 nM Imatinib). At the following day compounds were added in a serial dilution for 45 min. Then, cells were lysed with 90 μl lysis buffer (20 mM Hepes pH 7.5, 200 mM NaCl, 1.5 mM MgCl2×6H2O, 0.4 mM EDTA, 1% Triton-X-100, 1% Phosphatase-Inhibitor II, 20 mM β-Glycerolphosphat, 0.1% Protease-Inhibitor Cocktail III, 0.01% Benzonase) and lysates were cleared by centrifugation through a 96-well filter plate (0.65 μm). Samples were incubated with Luminex-beads which were coupled with an anti-total cKIT antibody overnight at 4° C. under gentle agitation. For detection of phospho-Y307-cKIT a phosphospecific antibody and a species-specific PE-labeled secondary antibody were added. The amount of phospho-Y307-cKIT was determined in a Luminex 200 instrument measuring 100 events per well within 60 seconds.
Counts from samples treated with compounds were calculated as percent of control from solvent treated (0.3% DMSO) samples. Dose-response curves were fitted and IC50 values were determined using Genedata Screener software.

T1 sequence (P10721 544-976 V654A): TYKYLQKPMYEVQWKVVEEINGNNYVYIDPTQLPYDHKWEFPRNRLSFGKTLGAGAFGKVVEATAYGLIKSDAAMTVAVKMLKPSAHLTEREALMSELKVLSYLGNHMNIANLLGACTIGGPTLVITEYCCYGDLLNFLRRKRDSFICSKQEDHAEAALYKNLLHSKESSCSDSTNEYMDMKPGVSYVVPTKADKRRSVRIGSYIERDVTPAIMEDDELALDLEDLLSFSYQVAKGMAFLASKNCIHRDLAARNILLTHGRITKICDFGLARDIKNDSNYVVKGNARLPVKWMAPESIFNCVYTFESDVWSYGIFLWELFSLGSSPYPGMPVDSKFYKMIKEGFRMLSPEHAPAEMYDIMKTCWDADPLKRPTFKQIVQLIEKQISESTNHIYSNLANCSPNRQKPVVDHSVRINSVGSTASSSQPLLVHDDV
T2 sequence (P10721 with tags, fused parts or gaps DEL560-576/V654A): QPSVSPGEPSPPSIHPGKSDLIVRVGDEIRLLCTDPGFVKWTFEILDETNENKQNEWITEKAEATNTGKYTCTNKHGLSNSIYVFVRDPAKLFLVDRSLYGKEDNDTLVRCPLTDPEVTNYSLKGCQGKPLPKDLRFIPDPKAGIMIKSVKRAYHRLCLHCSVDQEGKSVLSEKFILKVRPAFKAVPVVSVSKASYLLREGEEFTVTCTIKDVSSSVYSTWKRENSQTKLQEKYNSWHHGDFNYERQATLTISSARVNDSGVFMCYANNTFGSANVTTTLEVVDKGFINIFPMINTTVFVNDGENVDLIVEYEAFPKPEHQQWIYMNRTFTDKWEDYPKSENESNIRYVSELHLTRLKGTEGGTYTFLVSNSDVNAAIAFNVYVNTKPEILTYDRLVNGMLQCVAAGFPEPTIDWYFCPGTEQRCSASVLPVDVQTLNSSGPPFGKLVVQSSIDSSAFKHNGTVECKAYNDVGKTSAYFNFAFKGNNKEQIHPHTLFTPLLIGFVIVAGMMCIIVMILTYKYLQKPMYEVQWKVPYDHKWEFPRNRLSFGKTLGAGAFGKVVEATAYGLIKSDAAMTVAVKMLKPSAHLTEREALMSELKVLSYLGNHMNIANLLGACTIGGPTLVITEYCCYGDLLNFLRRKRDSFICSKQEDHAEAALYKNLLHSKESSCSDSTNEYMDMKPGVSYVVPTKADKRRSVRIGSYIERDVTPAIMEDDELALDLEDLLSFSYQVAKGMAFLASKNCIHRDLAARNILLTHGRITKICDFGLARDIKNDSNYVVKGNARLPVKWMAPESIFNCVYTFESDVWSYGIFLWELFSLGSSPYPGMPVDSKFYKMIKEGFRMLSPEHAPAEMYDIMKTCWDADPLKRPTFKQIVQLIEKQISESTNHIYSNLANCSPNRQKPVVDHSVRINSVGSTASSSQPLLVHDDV

SMILES	IC50 (c-Kit(V654A)) [nM]	IC50 [1] [nM]
COc1ccn2c(-c3cc(NCc4ccc(-c5cnn(CCO)c5)cc4)ncn3)cnc2c1 [A30, 2-[4-(4-{[6-(7-methoxy-imidazo[1,2-a]pyridin-3-yl)-pyrimidin-4-ylamino]-methyl}-phenyl)-pyrazol-1-yl]-ethanol]	27	180
COc1ccn2c(-c3cc(NCc4ccc(-c5cn(C)nn5)cc4)ncn3)cnc2c1 [A31, [6-(7-methoxy-imidazo[1,2-a]pyridin-3-yl)-pyrimidin-4-yl]-[4-(1-methyl-1H-[1,2,3]triazol-4-yl)-benzyl]-amine]	49	810
COc1ccn2c(-c3cc(NCc4ccc(-c5cnn(C6COC6)c5)cc4)ncn3)cnc2c1 [A33, 6-{7-methoxyimidazo[1,2-a]pyridin-3-yl}-N-({4-[1-(oxetan-3-yl)-1H-pyrazol-4-yl]phenyl}methyl)pyrimidin-4-amine]	16	120
COc1ccn2c(-c3cc(NCc4ccc(-c5nccc(OC)n5)cc4)ncn3)cnc2c1 [A34, 6-{7-methoxyimidazo[1,2-a]pyridin-3-yl}-N-{[4-(4-methoxypyrimidin-2-yl)phenyl]methyl}pyrimidin-4-amine]	52	740
COc1ccn2c(-c3cc(NCc4ccc(-c5cn(C)nc5N)cc4)ncn3)cnc2c1 [A35, [4-(3-amino-1-methyl-1H-pyrazol-4-yl)-benzyl]-[6-(7-methoxy-imidazo[1,2-a]pyridin-3-yl)-pyrimidin-4-yl]-amine]	71	890
COc1ccn2c(-c3cc(NCc4ccc(-c5nnn(C)n5)cc4)ncn3)cnc2c1 [A37, 6-{7-methoxyimidazo[1,2-a]pyridin-3-yl}-N-{[4-(2-methyl-2H-1,2,3,4-tetrazol-5-yl)phenyl]methyl}pyrimidin-4-amine]	15	220
COc1ccn2c(-c3cc(NCc4ccc(N5CC6CCC(C5)O6)cc4)ncn3)cnc2c1 [A38, [6-(7-methoxy-imidazo[1,2-a]pyridin-3-yl)-pyrimidin-4-yl]-[4-(8-oxa-3-aza-bicyclo[3.2.1]oct-3-yl)-benzyl]-amine]	55	710
COc1ccn2c(-c3cc(NCc4ccc(-c5cncn5C)cc4)ncn3)cnc2c1 [A39, 6-{7-methoxyimidazo[1,2-a]pyridin-3-yl}-N-{[4-(1-methyl-1H-imidazol-5-yl)phenyl]methyl}pyrimidin-4-amine]	27	640
COc1ccn2c(-c3cc(NCc4ccc(-c5ccc(C)nn5)cc4)ncn3)cnc2c1 [A40, 6-{7-methoxyimidazo[1,2-a]pyridin-3-yl}-N-{[4-(6-methylpyridazin-3-yl)phenyl]methyl}pyrimidin-4-amine]	36	1100
COc1ccn2c(-c3cc(NCc4ccc(-c5cnc(C)nc5)cc4)ncn3)cnc2c1 [A41, 6-{7-methoxyimidazo[1,2-a]pyridin-3-yl}-N-{[4-(2-methylpyrimidin-5-yl)phenyl]methyl}pyrimidin-4-amine]	46	1600
COc1ccn2c(-c3cc(NCc4ccc(-c5cnn(C)n5)cn4)ncn3)cnc2c1 [A44, [6-(7-methoxy-imidazo[1,2-a]pyridin-3-yl)-pyrimidin-4-yl]-[5-(2-methyl-2H-[1,2,3]triazol-4-yl)-pyridin-2-ylmethyl]-amine]	27	510
COc1ccn2c(-c3cc(NCc4ccc(-c5nc(C)no5)cc4)ncn3)cnc2c1 [A47, 6-{7-methoxyimidazo[1,2-a]pyridin-3-yl}-N-{[4-(3-methyl-1,2,4-oxadiazol-5-yl)phenyl]methyl}pyrimidin-4-amine]	10	190
COc1ccn2c(-c3cc(NCc4ccc(-c5cnc(C)o5)cc4)ncn3)cnc2c1 [A48, [6-(7-methoxy-imidazo[1,2-a]pyridin-3-yl)-pyrimidin-4-yl]-[4-(2-methyl-oxazol-5-yl)-benzyl]-amine]	25	470
COc1ccn2c(-c3cc(NCc4ccc(-c5cnn(C6CC6)c5)cc4)ncn3)cnc2c1 [A49, [4-(1-cyclopropyl-1H-pyrazol-4-yl)-benzyl]-[6-(7-methoxy-imidazo[1,2-a]pyridin-3-yl)-pyrimidin-4-yl]-amine]	7.3	89
COc1ccn2c(-c3cc(NCc4ccc(-c5cn(C)nc5OC)cc4)ncn3)cnc2c1 [A50, N-{[4-(3-methoxy-1-methyl-1H-pyrazol-4-yl)phenyl]methyl}-6-{7-methoxyimidazo[1,2-a]pyridin-3-yl}pyrimidin-4-amine]	25	490
COc1ccn2c(-c3cc(NCc4ccc(-c5cc(C)no5)cc4)ncn3)cnc2c1 [A52, [6-(7-methoxy-imidazo[1,2-a]pyridin-3-yl)-pyrimidin-4-yl]-[4-(3-methyl-isoxazol-5-yl)-benzyl]-amine]	5.7	150
COc1ccn2c(-c3cc(NCc4ccc(-c5ncc(C)o5)cc4)ncn3)cnc2c1 [A53, [6-(7-methoxy-imidazo[1,2-a]pyridin-3-yl)-pyrimidin-4-yl]-[4-(5-methyl-oxazol-2-yl)-benzyl]-amine]	6.3	340
Cn1cc(-c2ccc(CNc3cc(-c4cnc5cc(OC6CCOCC6)ccn45)ncn3)cc2)cn1 [A55, [4-(1-methyl-1H-pyrazol-4-yl)-benzyl]-{6-[7-(tetrahydro-pyran-4-yloxy)-imidazo[1,2-a]pyridin-3-yl]-pyrimidin-4-yl}-amine]	22	650
Cn1cc(-c2ccc(CNc3cc(-c4cnc5cc(OC6CCOC6)ccn45)ncn3)cc2)cn1 (stereo not shown) [A57, [4-(1-methyl-1H-pyrazol-4-yl)-benzyl]-{6-[7-(tetrahydro-furan-3-yloxy)-imidazo[1,2-a]pyridin-3-yl]-pyrimidin-4-yl}-amine]	11	270
Cn1cc(-c2ccc(CNc3cc(-c4cnc5cc(OCC6CC6)ccn45)ncn3)cc2)cn1 [A58, 6-[7-(cyclopropylmethoxy)imidazo[1,2-a]pyridin-3-yl]-N-{[4-(1-methyl-1H-pyrazol-4-yl)phenyl]methyl}pyrimidin-4-amine]	19	150
CN(C)CCOc1ccn2c(-c3cc(NCc4ccc(-c5cnn(C)c5)cc4)ncn3)cnc2c1 [A59, 6-{7-[2-(dimethylamino)ethoxy]imidazo[1,2-a]pyridin-3-yl}-N-{[4-(1-methyl-1H-pyrazol-4-yl)phenyl]methyl}pyrimidin-4-amine]	11	82
Cc1ccn2c(-c3cc(NCc4ccc(-c5cnn(C)c5)cc4)ncn3)cnc2c1 [A66, [6-(7-methyl-imidazo[1,2-a]pyridin-3-yl)-pyrimidin-4-yl]-[4-(1-methyl-1H-pyrazol-4-yl)-benzyl]-amine]	7.8	190
c1cn(-c2ccc(CNc3cc(-c4cnc5cc(OCCN6CCOCC6)ccn45)ncn3)cc2)nn1 [A68, {6-[7-(2-morpholin-4-yl-ethoxy)-imidazo[1,2-a]pyridin-3-yl]-pyrimidin-4-yl}-(4-[1,2,3]triazol-1-yl-benzyl)-amine]	5.7	63
COc1cc2ncc(-c3cc(NCc4ccc(-c5cnn(C)c5)cc4)ncn3)n2cc1F [A69, [6-(6-fluoro-7-methoxy-imidazo[1,2-a]pyridin-3-yl)-pyrimidin-4-yl]-[4-(1-methyl-1H-pyrazol-4-yl)-benzyl]-amine]	13	240
c1cn(-c2ccc(CNc3cc(-c4cnc5cc(OCCN6CCCC6)ccn45)ncn3)cc2)nn1 [A70, {6-[7-(2-pyrrolidin-1-yl-ethoxy)-imidazo[1,2-a]pyridin-3-yl]-pyrimidin-4-yl}-(4-[1,2,3]triazol-1-yl-benzyl)-amine]	21	230
Cn1cc(-c2ccc(CNc3cc(-c4cnc5cc(OCc6ccccc6)ccn45)ncn3)cc2)cn1 [A72, 6-[7-(benzyloxy)imidazo[1,2-a]pyridin-3-yl]-N-{[4-(1-methyl-1H-pyrazol-4-yl)phenyl]methyl}pyrimidin-4-amine]	72	540
